Assay results from BindingDB's records for doi:10.1021/jm970615f (Parke-Davis Pharmaceutical Research, 1997).

Each compound was assayed against T1, Dimer of Gag-Pol polyprotein [489-587] (Human immunodeficiency virus 1, UniProt P12497) (assay: Protease Inhibition Assay). Conditions: not given.
T1 construct: 489-587
Description: For determination of IC50 values, HIV-1 protease was added to assay buffer containing inhibitor and the substrate (H-His-Lys-Ala-Arg-Val-Leu- (p-NO2) Phe-Glu-Ala-norleucine-Ser-NH2). The Leu- (p-NO2) Phe bond of the substrate was cleaved by the enzyme, and the substrate and products were separated by reversed-phase HPLC. Absorbance was measured at 220 nm, peak areas were determined, and percentage conversion to product was calculated.

First: CC(C)c1ccccc1SC1C(=O)CC(CCc2ccccc2)(c2ccccc2)OC1=O (configuration not stated) [4-hydroxy-6-phenyl-6-(2-phenylethyl)-3-{[2-(propan-2-yl)phenyl]sulfanyl}-5,6-dihydro-2H-pyran-2-one]
Second: Cc1ccc(C(C)C)c(SC2C(=O)C[C@](CCc3ccccc3)(c3ccccc3)OC2=O)c1 (stereo partly drawn) [(6R)-4-hydroxy-3-{[5-methyl-2-(propan-2-yl)phenyl]sulfanyl}-6-phenyl-6-(2-phenylethyl)-5,6-dihydro-2H-pyran-2-one]
The IC50 of the first is 9.3-fold lower: 0.014 µM for the first, 0.13 µM for the second. The first is the more potent here.

First: O=C1CC2(CCc3ccccc32)OC(=O)C1SCc1ccccc1 (configuration not stated) [5'-(benzylsulfanyl)-4'-hydroxy-3',6',2,3-tetrahydrospiro[indene-1,2'-pyran]-6'-one]
Second: O=C1CC(COc2ccccc2)(c2ccccc2)OC(=O)C1SCc1ccccc1 (configuration not stated) [5,6-Dihydro-4-hydroxy-6-phenoxymethyl-6-phenyl-3-[(phenylmethyl)thio]-2H-pyran-2-one]
The IC50 of the first is 69-fold higher: 11.8 µM for the first, 0.172 µM for the second. The second is the more potent here.

Going from `CN(CC1(c2ccccc2)CC(=O)C(SCCc2ccccc2)C(=O)O1)c1ccccc1` (configuration not stated) [5,6-Dihydro-4-hydroxy-6-[(methylphenylamino)methyl]-6-phenyl-3-[(2-phenylethyl)thio]-2H-pyran-2-one] to `O=C1CC(c2ccccc2)(c2ccncc2)OC(=O)C1SCCc1ccccc1` (configuration not stated) [5,6-Dihydro-4-hydroxy-6-phenyl-3-[(2-phenylethyl)thio]-6-pyridin-4-yl-2H-pyran-2-one], the IC50 falls from 2.28 µM to 0.79 µM (2.9-fold). The second is the more potent here.

Going from `CC(C)c1ccc(C(C)C)c(SC2C(=O)CC(CCc3ccccc3)(c3ccccc3)OC2=O)c1` (configuration not stated) [5,6-Dihydro-4-hydroxy-6-phenyl-6-(2-phenylethyl)-3-[(2,5-diisopropylphenyl)sulfanyl]-2H-pyran-2-one] to `Cc1ccc(C(C)C)c(SC2C(=O)C[C@@](CCc3ccccc3)(c3ccccc3)OC2=O)c1` (stereo partly drawn) [(6S)-4-hydroxy-3-{[5-methyl-2-(propan-2-yl)phenyl]sulfanyl}-6-phenyl-6-(2-phenylethyl)-5,6-dihydro-2H-pyran-2-one], the IC50 falls from 0.014 µM to 0.006 µM (2.3-fold). The second is the more potent here.

For `NC(=O)CCCCC1(c2ccccc2)CC(=O)C(SCCc2ccccc2)C(=O)O1` (configuration not stated) [5-{4-hydroxy-6-oxo-2-phenyl-5-[(2-phenylethyl)sulfanyl]-3,6-dihydro-2H-pyran-2-yl}pentanamide], the IC50 was 0.338 µM.

Same assay, conditions: pH 4.7; 37 °C

Compared with `O=C(O)CCCC1(c2ccccc2)CC(=O)C(SCCc2ccccc2)C(=O)O1` (configuration not stated) [4-{4-hydroxy-6-oxo-2-phenyl-5-[(2-phenylethyl)sulfanyl]-3,6-dihydro-2H-pyran-2-yl}butanoic acid], `O=C(O)CCCCC1(c2ccccc2)CC(=O)C(SCCc2ccccc2)C(=O)O1` (configuration not stated) [5-{4-hydroxy-6-oxo-2-phenyl-5-[(2-phenylethyl)sulfanyl]-3,6-dihydro-2H-pyran-2-yl}pentanoic acid] is 54-fold lower in IC50: 0.27 µM for the first, 0.005 µM for the second. The second is the more potent here.

Compared with `O=C1CC(c2ccccc2)(c2ccccc2)OC(=O)C1Sc1ccccc1` (configuration not stated) [5,6-Dihydro-4-hydroxy-6,6-diphenyl-3-(phenylthio)-2H-pyran-2-one], `O=C1CC(c2ccccc2)(c2ccccc2)OC(=O)C1SCc1ccccc1` (configuration not stated) [5,6-Dihydro-4-hydroxy-6,6-diphenyl-3-[(phenylmethyl)thio]-2H-pyran-2-one] is 2.4-fold higher in IC50: 0.11 µM for the first, 0.262 µM for the second.

First: O=C1CC(c2ccccc2)(c2ccccc2)OC(=O)C1SCCc1ccccc1 (configuration not stated) [5,6-Dihydro-4-hydroxy-6,6-diphenyl-3-[(2-phenylethyl)thio]-2H-pyran-2-one]
Second: O=C1CC(CCc2ccccc2)(c2ccccc2)OC(=O)C1SCCc1ccccc1 (configuration not stated) [5,6-Dihydro-4-hydroxy-6-phenyl-6-(2-phenylethyl)-3-[(2-phenylethyl)thio]-2H-pyran-2-one]
The IC50 of the first is 3-fold higher: 0.152 µM for the first, 0.051 µM for the second.

First: CC(C)CC1(c2ccccc2)CC(=O)C(SCCc2ccccc2)C(=O)O1 (configuration not stated) [5,6-Dihydro-4-hydroxy-6-(2-methylpropyl)-6-phenyl-3-[(2-phenylethyl)thio]-2H-pyran-2-one]
Second: CCCC1(c2ccccc2)CC(=O)C(SCCc2ccccc2)C(=O)O1 (configuration not stated) [5,6-Dihydro-4-hydroxy-6-phenyl-3-[(2-phenylethyl)thio]-6-propyl-2H-pyran-2-one]
The IC50 of the first is 4.2-fold lower: 1.2 µM for the first, 5.1 µM for the second.

First: CC(C)CCC1(c2ccccc2)CC(=O)C(Sc2ccccc2)C(=O)O1 (configuration not stated) [5,6-Dihydro-4-hydroxy-6-(3-methylbutyl)-6-phenyl-3-(phenylthio)-2H-pyran-2-one]
Second: O=C1CC(CCc2ccccc2)(c2ccccc2)OC(=O)C1Sc1ccccc1 (configuration not stated) [5,6-Dihydro-4-hydroxy-6-phenyl-6-(2-phenylethyl)-3-(phenylthio)-2H-pyran-2-one]
The IC50 of the first is 11-fold higher: 1.4 µM for the first, 0.13 µM for the second.

Compared with `O=C1CC(c2ccccc2)OC(=O)C1SCCc1ccccc1` (configuration not stated) [5,6-Dihydro-4-hydroxy-6-phenyl-3-[(2-phenylethyl)thio]-2H-pyran-2-one], `O=C1CC(c2ccccc2)OC(=O)C1SCc1ccccc1` (configuration not stated) [5,6-Dihydro-4-hydroxy-6-phenyl-3-[(phenylmethyl)thio]-2H-pyran-2-one] is 4.2-fold higher in IC50: 2.1 µM for the first, 8.9 µM for the second.

`CCCC1(c2ccccc2)CC(=O)C(SCc2ccccc2)C(=O)O1` (configuration not stated) [5,6-Dihydro-4-hydroxy-6-phenyl-3-[(phenylmethyl)thio]-6-propyl-2H-pyran-2-one] and `CCCCC1(c2ccccc2)CC(=O)C(SCCc2ccccc2)C(=O)O1` (configuration not stated) [6-Butyl-5,6-dihydro-4-hydroxy-6-phenyl-3-[(2-phenylethyl)thio]-2H-pyran-2-one] are within 1.5-fold of each other in IC50: 0.29 µM for the first, 0.4 µM for the second.

First: CCCCCCC1(c2ccccc2)CC(=O)C(SCCc2ccccc2)C(=O)O1 (configuration not stated) [5,6-Dihydro-6-hexyl-4-hydroxy-6-phenyl-3-[(2-phenylethyl)thio]-2H-pyran-2-one]
Second: O=C1CC(CC2CCCC2)(c2ccccc2)OC(=O)C1SCCc1ccccc1 (configuration not stated) [6-(cyclopentylmethyl)-4-hydroxy-6-phenyl-3-[(2-phenylethyl)sulfanyl]-5,6-dihydro-2H-pyran-2-one]
The IC50 of the first is 4.6-fold lower: 0.112 µM for the first, 0.51 µM for the second.

Compared with `O=C1CC(CC2CCCCC2)(c2ccccc2)OC(=O)C1SCc1ccccc1` (configuration not stated) [6-(Cyclohexylmethyl)-5,6-dihydro-4-hydroxy-6-phenyl-3-[(phenylmethyl)thio]-2H-pyran-2-one], `O=C1CC(CC2CCCC2)(c2ccccc2)OC(=O)C1SCc1ccccc1` (configuration not stated) [6-(Cyclopentylmethyl)-5,6-dihydro-4-hydroxy-6-phenyl-3-[(phenylmethyl)thio]-2H-pyran-2-one] is 1.6-fold lower in IC50: 0.137 µM for the first, 0.088 µM for the second.
